In ChEMBL document CHEMBL5380816, “Inclusion of Nitrofurantoin into the Realm of Cancer Chemotherapy via Biology-Oriented Synthesis and Drug Repurposing” (J Med Chem, 2023) one finds Activity, viability and IC50 data, which are given here for 4 compounds.

SMILES strings stand for the structures. Activity calls are given as the source filed them. No cut-off for these calls is given here.

Assay [1] deals with MCF7. The assay is described as follows: Induction of apoptosis in human MCF7 cells assessed as total apoptotic cells incubated at 0.098 uM for 72 hrs by annexin V-FITC based propidium iodide dual staining assay (reference value: 0.04 %). The format is functional.
In assay [2] the test system is HepG2. Briefly: Induction of apoptosis in human HepG2 cells assessed as necrotic cells incubated at 0.098 uM for 72 hrs by annexin V-FITC based propidium iodide dual staining assay (reference value: 0.33%). The format is functional.
Assay [3] deals with HeLa. The assay is described as follows: Induction of oxidative stress in human HeLa cells assessed as cell death by measuring redox alteration fluorescence incubated at 0.11 uM for 72 hrs in presence of dihydro dichlorofluorescein diacetate by DCFH-DA based flow cytometric analysis relative to control. The format is functional. (A flow cytometer gives signals particle by particle.)

The test system of assay [4] is HeLa. The assay is described as follows: Induction of apoptosis in human HeLa cells assessed as total apoptotic cells incubated at 0.098 uM for 72 hrs by annexin V-FITC based propidium iodide dual staining assay (reference value: 0 +/- 0.035%). Type of assay: functional.
In assay [5] the test system is Caco-2. The assay is described as follows: Anticancer activity against human Caco-2 cells assessed as smaller cells incubated at 0.098uM for 72 hrs by phase contrast inverted microscopic analysis. The format is functional, cell-based.
Assay [6] relates to MCF7. The assay is described as follows: Anticancer activity against human MCF7 cells assessed as losing contact with neighbouring cells incubated at 0.098uM for 72 hrs by phase contrast inverted microscopic analysis. Type of assay: functional, cell-based.
For assay [7], the system named is HepG2. Briefly: Induction of apoptosis in human HepG2 cells assessed as early apoptotic cells by measuring bright green patch incubated at 0.098 uM for 72 hrs by acridine orange-ethidium bromide dual staining based fluorescence microscopic analysis. The format is functional, cell-based.
Assay [8] has as its system Caco-2. The assay is described as follows: Induction of apoptosis in human Caco-2 cells assessed as necrotic cells incubated at 0.098 uM for 72 hrs by annexin V-FITC based propidium iodide dual staining assay (reference value: 0.02 %). The format is functional.
In assay [9] the test system is MCF7. Briefly: Induction of apoptosis in human MCF7 cells assessed as viable cells incubated at 0.11 uM for 72 hrs by annexin V-FITC based propidium iodide dual staining assay (reference value: 99.9%). Type of assay: functional. To be noted: read-out: Activity.
For assay [10], the system named is Caco-2. Briefly: Induction of apoptosis in human Caco-2 cells assessed as necrotic cells incubated at 0.11 uM for 72 hrs by annexin V-FITC based propidium iodide dual staining assay (reference value: 0.02%). Type of assay: functional.
Assay [11] relates to HepG2. The assay is described as follows: Anticancer activity against human HepG2 cells assessed as smaller cells incubated at 0.11 uM for 72 hrs by phase contrast inverted microscopic analysis. Type of assay: functional, cell-based.
Assay [12] has as its system MCF7. Briefly: Anticancer activity against human MCF7 cells incubated for 24 hrs by MTT assay. The format is functional, cell-based. To be noted: MCF7, 24 h. On the technique in general: Tetrazolium assays rely on reduction of a dye to a coloured formazan, in cell work by metabolically active cells.
In assay [13] the test system is dsDNA. Briefly: Induction of damage in dsDNA (unknown origin) assessed as DNA disruption by measuring fluorescence intensity at 100 uM incubated for 2.5 hrs by EvaGreen based fluorescence plate reader analysis. The format is nucleic-acid assay.
Assay [14] deals with HeLa. The assay is described as follows: Anticancer activity against human HeLa cells assessed as smaller cells incubated at 0.11 uM for 72 hrs by phase contrast inverted microscopic analysis. Type of assay: functional, cell-based.
The test system of assay [15] is Caco-2. Briefly: Anticancer activity against human Caco-2 cells assessed as smaller cells incubated at 0.11 uM for 72 hrs by phase contrast inverted microscopic analysis. Type of assay: functional, cell-based.
The subject of assay [16] is MCF7. The assay is described as follows: Induction of DNA damage in human MCF7 cells assessed as reduction of p53 ubiquitination at 5 uM incubated for 24 hrs by Western blot analysis. Type of assay: functional, cell-based. (In western blotting, separated proteins are transferred to a membrane and probed.)
Assay [17] has as its system MCF7. Briefly: Anticancer activity against human MCF7 cells assessed as losing contact with neighbouring cells incubated at 0.11 uM for 72 hrs by phase contrast inverted microscopic analysis. Type of assay: functional, cell-based.
The test system of assay [18] is HepG2. The assay is described as follows: Induction of apoptosis in human HepG2 cells assessed as necrotic cells incubated at 0.11 uM for 72 hrs by annexin V-FITC based propidium iodide dual staining assay (reference value: 0.33%). Type of assay: functional.
Assay [19] has as its system HepG2. Briefly: Induction of oxidative stress in human HepG2 cells assessed as cell death by measuring redox alteration fluorescence incubated at 0.027 uM for 72 hrs in presence of dihydro dichlorofluorescein diacetate by DCFH-DA based flow cytometric analysis relative to control. Type of assay: functional.
Assay [20] has as its system HepG2. The assay is described as follows: Induction of apoptosis in human HepG2 cells assessed as late apoptotic cells by measuring orange to red patch incubated at 0.11 uM for 72 hrs by acridine orange-ethidium bromide dual staining based fluorescence microscopic analysis. The format is functional, cell-based.
Assay [21] relates to HeLa. The assay is described as follows: Induction of apoptosis in human HeLa cells assessed as late apoptotic cells by measuring orange to red patch incubated at 0.11 uM for 72 hrs by acridine orange-ethidium bromide dual staining based fluorescence microscopic analysis. The format is functional, cell-based.
Assay [22] has as its system HeLa. The assay is described as follows: Induction of apoptosis in human HeLa cells assessed as viable cells by measuring green uniform patch incubated at 0.017 uM for 72 hrs by acridine orange-ethidium bromide dual staining based fluorescence microscopic analysis. Type of assay: functional, cell-based.
Assay [23] deals with MCF7. The assay is described as follows: Induction of apoptosis in human MCF7 cells assessed as late apoptotic cells incubated at 0.017 uM for 72 hrs by annexin V-FITC based propidium iodide dual staining assay (reference value: 0.01%). Type of assay: functional.
For assay [24], the system named is HeLa. Briefly: Induction of apoptosis in human HeLa cells assessed as caspase3/7 activation at 0.017 uM using caspase-glo 3/7 as substrate relative to control. Type of assay: functional.
The test system of assay [25] is MCF7. Briefly: Induction of oxidative stress in human MCF7 cells assessed as cell death by measuring redox alteration fluorescence incubated at 0.098 uM for 72 hrs in presence of dihydro dichlorofluorescein diacetate by DCFH-DA based flow cytometric analysis relative to control. The format is functional.
Assay [26] relates to MCF7. The assay is described as follows: Induction of apoptosis in human MCF7 cells assessed as viable cells incubated at 0.017 uM for 72 hrs by annexin V-FITC based propidium iodide dual staining assay (reference value: 99.9%). The format is functional. To be noted: read-out: Activity.
Assay [27] relates to HepG2. Briefly: Induction of apoptosis in human HepG2 cells assessed as viable cells incubated at 0.097 uM for 72 hrs by annexin V-FITC based propidium iodide dual staining assay (reference value: 97.27%). To be noted: read-out: Activity. The format is functional.
Assay [28] relates to MCF7. Briefly: Induction of apoptosis in human MCF7 cells assessed as increase in Bax expression level relative to control. The format is functional.
The test system of assay [29] is HeLa. The assay is described as follows: Induction of apoptosis in human HeLa cells assessed as total apoptotic cells incubated at 0.097 uM for 72 hrs by annexin V-FITC based propidium iodide dual staining assay (reference value: 0 +/- 0.035%). Type of assay: functional.
Assay [30] relates to Caco-2. Briefly: Induction of apoptosis in human Caco-2 cells assessed as early apoptotic cells by measuring bright green patch incubated at 0.097 uM for 72 hrs by acridine orange-ethidium bromide dual staining based fluorescence microscopic analysis. Type of assay: functional, cell-based.
Assay [31] relates to Caco-2. Briefly: Induction of apoptosis in human Caco-2 cells assessed as late apoptotic cells by measuring orange to red patch incubated at 0.097 uM for 72 hrs by acridine orange-ethidium bromide dual staining based fluorescence microscopic analysis. The format is functional, cell-based.
The subject of assay [32] is HeLa. The assay is described as follows: Anticancer activity against human HeLa cells assessed as smaller cells incubated at 0.097uM for 72 hrs by phase contrast inverted microscopic analysis. The format is functional, cell-based.
Assay [33] has as its system HepG2. The assay is described as follows: Anticancer activity against human HepG2 cells assessed as round cells incubated at 0.097uM for 72 hrs by phase contrast inverted microscopic analysis. The format is functional, cell-based.
Assay [34] deals with MCF7. The assay is described as follows: Induction of apoptosis in human MCF7 cells assessed as caspase3/7 activation at 0.097 uM using caspase-glo 3/7 as substrate relative to control. Type of assay: functional.
For assay [35], the system named is Caco-2. Briefly: Induction of oxidative stress in human Caco-2 cells assessed as cell death by measuring redox alteration fluorescence incubated at 0.017 uM for 72 hrs in presence of dihydro dichlorofluorescein diacetate by DCFH-DA based flow cytometric analysis relative to control. Type of assay: functional.

One may read the IC50 as the concentration that inhibits the measured activity by half.

On to `O=C(CN1C(=O)CN(/N=C/c2ccc([N+](=O)[O-])o2)C1=O)c1ccc(Cl)cc1`, for which the Activity in assay [1] is listed as 41.73%; in assay [2] it was 3.85%; in [3], 32.41%; in assay [4], 64.08%; in [8], 3.37%. Also, the outcome in assay [5], in assay [6] and in [7] was Active.

For `C#CCN1C(=O)CN(/N=C/c2ccc([N+](=O)[O-])o2)C1=O`, the viability at 0.11 µM in assay [9] is 53.7%. Besides, the Activity in assay [10] came to 0.57%; in assay [13], 27.2; in assay [18], 3.66%; in assay [19], 54.19%. Further, the outcome in [11], in assay [14], in assay [15], in [16], in assay [17] and in assay [20] was Active. Moreover, the outcome in [21] was Active. For the same compound, in [12], it took 120 µM to reach half-maximal inhibition (IC50).

As to `O=c1[nH]cc(F)c(=O)[nH]1` [FLUOROURACIL], the outcome in assay [22] was Active. Further, the Activity in assay [23] was 2.26%; in assay [24], 12%; in assay [25], 4.24%. In [26], the viability at 0.017 µM came to 90.9%.

In the case of `NS(=O)(=O)c1ccc(-n2cc(CN3C(=O)CN(/N=C/c4ccc([N+](=O)[O-])o4)C3=O)nn2)cc1`, the viability at 0.097 µM in assay [27] stood at 78.9%. The Activity in assay [28] amounted to 300%; in [29], 39.42%; in assay [34], 58%; in assay [35], 22.21%. For the same compound, the result in assay [30], in [31], in [32] and in [33] was Active.
